Assays:
protein kinase A (PKA) = assay: PKA activity in brain regions and cerebral microvessels after GLP-1 infusion; assay type: in vivo, rat
Description: Each rat received a systemic infusion of either saline or GLP-1 (Abcam, Cambridge, United Kingdom) (30 pmol/kg/min) via the jugular vein catheter for 10 min. Plasma samples were then collected and rats sacrificed via anesthetic overdose. Cerebral spinal fluid (CSF) and various brain regions (cerebellum, cortex, hippocampus, hypothalamus, and brain stem) were collected for further assays. Cerebral microvessels were isolated as described ([Austin et al., 2010]). Briefly, brain tissue was disrupted with a razor blade followed by passing through an 18G needle. Vessel fragments were harvested using dextran-gradient centrifugation, then collected on a 20 μm pore filter, washed to remove cell debris, and reconstituted in buffer. This was followed by passing through a 100 μm pore size filter. Brain vessels that can pass through the 100 μm filter were considered as cerebral microvessel and used for protein kinase A (PKA) activity assay. […]
(§1) All plasma and CSF samples collected during the study were frozen immediately and stored at −80°C until further analysis of GLP-1 concentration using a total GLP-1 ELISA kit (Merck Millipore, Billerica, MA, United States) ([Knezovic et al., 2018]). To measure PKA activity in brain tissue, cerebral microvessels, or cultured cells, samples were homogenized and lysed in PKA lysis buffer and activity determined using a Pep Tag® non-radioactive protein kinase assay kit (Promega, Madison, WI, United States) ([Christian et al., 2011]). […]
FIGURE 2 GLP-1 infusion increases PKA activity in various brain regions in both normal and vagotomized rats. […] PKA activities in various brain regions were determined in normal rats (A,B) and vagotomized rats (D,E). […] (B,E), Quantitative analysis (B, n = 7; *p < 0.05 vs. saline infusion, Student’s t test) (E, n = 6; *p < 0.05 vs. saline infusion, Student’s t test).
(§2) Each rat received a systemic infusion of either saline or GLP-1 (30 pmol/kg/min) for 10 min, GLP-1 concentrations in CSF and plasma were determined and cerebral microvessels were isolated. […] (D) Quantitative analysis of PKA activity (n = 6, *p < 0.05, Student’s t test).

[1] = GLP-1 concentrations in plasma and CSF (total GLP-1 ELISA); assay type: in vivo; settings: rat, systemic infusion 30 pmol/kg/min for 10 min, n = 4
Description: Each rat received a systemic infusion of either saline or GLP-1 (Abcam, Cambridge, United Kingdom) (30 pmol/kg/min) via the jugular vein catheter for 10 min. Plasma samples were then collected and rats sacrificed via anesthetic overdose. Cerebral spinal fluid (CSF) and various brain regions (cerebellum, cortex, hippocampus, hypothalamus, and brain stem) were collected for further assays. Cerebral microvessels were isolated as described ([Austin et al., 2010]). Briefly, brain tissue was disrupted with a razor blade followed by passing through an 18G needle. […]
as §1, §2

DPP4 = settings: plasma, degradation by DPP4; no reference given; cited from earlier work
Source text: GLP-1 receptors are expressed in multiple brain areas in rodents, primates, and humans and they are involved in learning, neuroprotection and regulation of appetite and satiety ([Wei and Mojsov, 1995]; [During et al., 2003]; [Richards et al., 2014]). Global knockout of the GLP-1 receptor in mice impairs synaptic plasticity and memory formation ([Abbas et al., 2009]). […] Indeed, pre-treatment of animals w ...

[2] = Microvascular perfusion in hippocampus and skeletal muscle (contrast-enhanced ultrasound), with blood glucose and MAP; assay type: in vivo; settings: rat
Description: After a 30–45 min baseline period to ensure hemodynamic stability and a stable level of anesthesia, baseline microvascular blood volume (MBV) and microvascular flow velocity (MFV), in the hippocampus and skeletal muscle were determined using contrast-enhanced ultrasound (CEU), as described previously ([Chai et al., 2010]; [Fu et al., 2013], [2017]). In brief, microbubbles (Definity; Lantheus Medical Imaging) were diluted with normal saline (1:10 vol:vol) and infused intravenously at a rate of 0.8 mL/h. Once the systemic microbubble concentrations reached steady state (∼6 min), high-power pulse-inversion ultrasound (HDI-5000; Philips Ultrasound) was used to image the microbubble signals in the hippocampus and the proximal adductor muscle group (adductor magnus and semimembranosus). Intermittent imaging was performed at pulsing intervals ranging from 0.5 to 10 s. At least three images were acquired at each pulsing interval, and the images obtained at 0.5 s were used as background. Pulsing interval vs. background-subtracted video intensity was fitted to the function y = A (1 − e^−βt, with y being video intensity at pulsing interval t. A as the plateau video intensity measures MBV and β represents the rate of microvascular filling (i.e., MFV). Microvascular blood flow (MBF) was calculated by multiplying MBV and MFV. All CEU images were analyzed using the QLAB software (Philips Medical Systems, Andover, MA, United States).
After the baseline hippocampal and muscle microvascular parameters were obtained, rats then received a continuous intravenous infusion of either saline or GLP-1 (30 pmol/kg/min) for 120 min. Hippocampal microvascular parameters (MBV, MFV, and MBF) were again determined every 30 min and muscle microvascular parameters at 120 min using CEU. Throughout the study, mean arterial blood pressure (MAP) was monitored via a sensor connected to the carotid catheter (Harvard Apparatus, Holliston, MA, United States, and AD Instruments, Inc., Colorado Springs, CO, United States). Inactin was infused at a variable rate to maintain steady levels of anesthesia and blood pressure throughout the study. Carotid arterial blood glucose concentrations were determined every 30 min using a Contour Next glucometer (BAYER). At the end of each study the rat was euthanized by an overdose of inactin.
FIGURE 8 GLP-1 infusion increases muscle but not […] microvascular perfusion. Each rat received a systemic infusion of saline or GLP-1 at 30 pmol/kg/min for 120 min and MBV, MFV and MBF were determined using contrast-enhanced ultrasound in both […] (A,B,C) and muscle (D,E,F) (n = 6, *p < 0.05, vs. control, Student’s t test).

[3] = 30 pmol/kg/min i.v. for 120 min, contrast-enhanced ultrasound, n = 6
[4] = 30 pmol/kg/min i.v. for 120 min, n = 6
[5] = 30 pmol/kg/min i.v., at 120 min, contrast-enhanced ultrasound, n = 6, p < 0.05

## Glucagon-like peptide 1 [GLP-1]
Protein kinase A (PKA); isolated cerebral microvessels, rat, GLP-1 30 pmol/kg/min for 10 min, n = 6, p < 0.05
  PKA activity in brain microvessels: acutely increased
Protein kinase A (PKA); normal rats, GLP-1 30 pmol/kg/min infusion for 10 min vs saline, n = 7, p < 0.05
  PKA activities in all brain regions: significantly increased
Protein kinase A (PKA); sham-operated and sub-diaphragmatic vagotomized rats, GLP-1 30 pmol/kg/min for 10 min, n = 6
  PKA activity in various brain regions: rapid and robust increase
[1]
  levels of GLP-1 in CSF: remained undetectable
  plasma GLP-1 concentrations: markedly increased
DPP4
  half-life: ~2 min
[2]; [3]
  hippocampal MBF: did not alter
  hippocampal MBV: did not alter
  hippocampal MFV: did not alter
[2]; [4]
  Blood glucose during the study: remained stable
  MAP during the study: remained stable
[2]; 30 pmol/kg/min i.v., at 120 min, contrast-enhanced ultrasound, n = 6
  MFV in muscle: without affecting
[2]; [5]
  MBF in muscle: markedly increase
  MBV in muscle: markedly increase

From article PMC7274078, “Brain Endothelial Cells Regulate Glucagon-Like Peptide 1 Entry Into the Brain via a Receptor-Mediated Process” (Frontiers in Physiology, 2020)
